Values quoted from earlier work in US11331392B2, “Biodegradable thermo-responsive polymers and uses thereof” (The Trustees of Columbia University in the City of New York, priority 2014, dated 2022).

Tested on: endothelial and tumor cells

For `Cc1cc(O)ccc1O` [methylhydroquinone (MHQ), methylhydroquinone], the “concentration range inhibiting growth of cells in culture” value is given as “micromolar range”.
